Reference: a compilation of properties of binary mixtures (doi:10.1039/c5cp02799c)

Assay: xn = mol fraction of the nth substance listed
Details: 101.3 kPa

Work on `CCCCC[P+](CC)(CC)CC.O=S(=O)([N-]S(=O)(=O)C(F)(F)F)C(F)(F)F` + O=S(=O)([N-]S(=O)(=O)C(F)(F)F)C(F)(F)F.[Li+] yielded an electrical conductivity (298.2 K, x2 = 0.25) of 0.062 S/m, an electrical conductivity (298.2 K, x2 = 0.39) of 0.016 S/m and a viscosity (298.2 K, x2 = 0.39) of 1300 mPa·s. For the same compound, the viscosity (298.3 K, x2 = 0.25) was 310 mPa·s, the viscosity (300.2 K, x2 = 0.25) was 270 mPa·s and the electrical conductivity (300.2 K, x2 = 0.39) was 0.019 S/m. It also gave an electrical conductivity (300.3 K, x2 = 0.25) of 0.075 S/m, an electrical conductivity (306.2 K, x2 = 0.25) of 0.1 S/m and an electrical conductivity (306.2 K, x2 = 0.39) of 0.028 S/m. It also gave a viscosity (306.2 K, x2 = 0.39) of 670 mPa·s, a viscosity (306.3 K, x2 = 0.25) of 180 mPa·s and an electrical conductivity (312.2 K, x2 = 0.39) of 0.041 S/m. The electrical conductivity (312.3 K, x2 = 0.25) was 0.14 S/m, the viscosity (312.3 K, x2 = 0.25) was 130 mPa·s and the viscosity (312.3 K, x2 = 0.39) was 440 mPa·s. The electrical conductivity (318.2 K, x2 = 0.39) was 0.058 S/m, the viscosity (318.2 K, x2 = 0.39) was 290 mPa·s and the electrical conductivity (318.3 K, x2 = 0.25) was 0.18 S/m. For the same compound, the viscosity (318.3 K, x2 = 0.25) was 95 mPa·s, the electrical conductivity (324.3 K, x2 = 0.25) was 0.23 S/m and the viscosity (324.3 K, x2 = 0.25) was 71 mPa·s. For the same compound, the electrical conductivity (330.3 K, x2 = 0.25) was 0.29 S/m, the viscosity (330.4 K, x2 = 0.25) was 54 mPa·s and the electrical conductivity (336.2 K, x2 = 0.39) was 0.15 S/m. For the same compound, the viscosity (336.2 K, x2 = 0.39) was 110 mPa·s, the viscosity (341.2 K, x2 = 0.39) was 85 mPa·s and the electrical conductivity (348.2 K, x2 = 0.39) was 0.24 S/m. The viscosity (348.2 K, x2 = 0.39) was 63 mPa·s, the viscosity (355.2 K, x2 = 0.39) was 47 mPa·s and the viscosity (355.3 K, x2 = 0.25) was 21 mPa·s. For the same compound, the electrical conductivity (361.3 K, x2 = 0.25) was 0.73 S/m, the viscosity (361.4 K, x2 = 0.25) was 18 mPa·s and the viscosity (374.2 K, x2 = 0.25) was 12 mPa·s. For the same compound, the viscosity (374.2 K, x2 = 0.39) was 24 mPa·s.
For `CC[P+](CC)(CC)CCOC.O=S(=O)([N-]S(=O)(=O)C(F)(F)F)C(F)(F)F` + O=S(=O)([N-]S(=O)(=O)C(F)(F)F)C(F)(F)F.[Li+], the electrical conductivity (298.2 K, x2 = 0.39) was 0.51 S/m, the viscosity (298.2 K, x2 = 0.39) was 620 mPa·s and the viscosity (300.1 K, x2 = 0.39) was 540 mPa·s. The viscosity (300.2 K, x2 = 0.25) was 150 mPa·s, the electrical conductivity (300.2 K, x2 = 0.39) was 0.55 S/m and the electrical conductivity (300.3 K, x2 = 0.25) was 1.1 S/m. It also gave a viscosity (306.1 K, x2 = 0.39) of 360 mPa·s, an electrical conductivity (306.2 K, x2 = 0.25) of 1.2 S/m and an electrical conductivity (306.2 K, x2 = 0.39) of 0.68 S/m. The viscosity (306.3 K, x2 = 0.25) was 110 mPa·s, the viscosity (312.2 K, x2 = 0.25) was 81 mPa·s and the electrical conductivity (312.3 K, x2 = 0.25) was 1.3 S/m. The viscosity (312.3 K, x2 = 0.39) was 250 mPa·s, the viscosity (318.1 K, x2 = 0.39) was 180 mPa·s and the electrical conductivity (318.2 K, x2 = 0.39) was 0.91 S/m. For the same compound, the electrical conductivity (318.3 K, x2 = 0.25) was 1.4 S/m, the viscosity (318.3 K, x2 = 0.25) was 61 mPa·s and the viscosity (324.2 K, x2 = 0.25) was 47 mPa·s. For the same compound, the electrical conductivity (324.2 K, x2 = 0.39) was 1 S/m, the viscosity (324.2 K, x2 = 0.39) was 130 mPa·s and the electrical conductivity (324.3 K, x2 = 0.25) was 1.4 S/m. The electrical conductivity (330.2 K, x2 = 0.39) was 1.1 S/m, the viscosity (330.2 K, x2 = 0.39) was 95 mPa·s and the electrical conductivity (330.3 K, x2 = 0.25) was 1.5 S/m. It also gave a viscosity (330.3 K, x2 = 0.25) of 37 mPa·s, an electrical conductivity (336.2 K, x2 = 0.39) of 1.2 S/m and a viscosity (336.2 K, x2 = 0.39) of 72 mPa·s. For the same compound, the electrical conductivity (336.3 K, x2 = 0.25) was 1.6 S/m, the viscosity (336.3 K, x2 = 0.25) was 30 mPa·s and the viscosity (341.1 K, x2 = 0.39) was 58 mPa·s. It also gave a viscosity (341.3 K, x2 = 0.25) of 25 mPa·s, an electrical conductivity (348.2 K, x2 = 0.25) of 1.7 S/m and a viscosity (348.2 K, x2 = 0.25) of 20 mPa·s. It also gave an electrical conductivity (348.2 K, x2 = 0.39) of 1.3 S/m, a viscosity (348.2 K, x2 = 0.39) of 45 mPa·s and a viscosity (355.2 K, x2 = 0.39) of 34 mPa·s. The viscosity (361.2 K, x2 = 0.39) was 28 mPa·s, the electrical conductivity (361.3 K, x2 = 0.25) was 1.8 S/m and the viscosity (361.3 K, x2 = 0.25) was 14 mPa·s. For the same compound, the viscosity (374.2 K, x2 = 0.39) was 19 mPa·s and the viscosity (374.3 K, x2 = 0.25) was 10 mPa·s.
